Assay results published in ChEMBL document CHEMBL3352475, “Novel dammarane saponins from Gynostemma pentaphyllum and their cytotoxic activities against HepG2 cells” (Bioorg Med Chem Lett, 2014).
In brackets after ≈: the same amount, converted by molar mass.

Tested on: HepG2
Assay: Cytotoxicity against human HepG2 cells after 24 hrs by CCK-8 assay
Format: functional, cell-based
Conditions: HepG2, 24 h

Point of comparison: CC(C)=CCC[C@](C)(O)[C@H]1CC[C@]2(C)[C@@H]1[C@H](O)C[C@@H]1[C@@]3(C)CC[C@H](O[C@@H]4O[C@H](CO)[C@@H](O)[C@H](O)[C@H]4O[C@@H]4O[C@H](CO)[C@@H](O)[C@H](O)[C@H]4O)C(C)(C)[C@@H]3CC[C@]12C, IC50 54 µg/mL (≈ 68.8 µM). Against it:
- CC(=O)OC[C@H]1O[C@@H](O[C@H]2[C@H](O[C@H]3[C@H](O)C[C@]4(C)[C@H]5C[C@@H](O)[C@@H]6[C@@H](/C(C)=C\CC=C(C)C)CC[C@@]6(C)[C@]5(C)CC[C@H]4C3(C)C)O[C@H](CO)[C@@H](O)[C@@H]2O)[C@H](O)[C@@H](O)[C@@H]1O — within 1.5-fold, 40 µg/mL (≈ 48.5 µM)
- C=C(CCC=C(C)C)[C@H]1CC[C@]2(C)[C@@H]1[C@H](O)C[C@@H]1[C@@]3(C)C[C@@H](O)[C@H](O[C@@H]4O[C@H](CO)[C@@H](O)[C@H](O)[C@H]4O[C@@H]4O[C@H](COC(C)=O)[C@@H](O)[C@H](O)[C@H]4O)C(C)(C)[C@@H]3CC[C@]12C — within 1.5-fold, 38 µg/mL (≈ 46.1 µM)
